Source: patent publication US20220002314A1 (priority 2018, published 2022)
Like-named read-outs stand apart in the source and are kept apart here.

Columns and labels:
Human μ-opioid receptor = Human μ-opioid receptor (Homo sapiens, UniProt P35372); assay: biochemical; assay type: binding
[1] = molecular target: Human α2δ-1 subunit of Cav2.2 calcium channel (Homo sapiens, UniProt P54289); assay: biochemical; assay type: binding
Human α2δ-1 subunit of Cav2.2 calcium channel, sequence (P54289 25-1103): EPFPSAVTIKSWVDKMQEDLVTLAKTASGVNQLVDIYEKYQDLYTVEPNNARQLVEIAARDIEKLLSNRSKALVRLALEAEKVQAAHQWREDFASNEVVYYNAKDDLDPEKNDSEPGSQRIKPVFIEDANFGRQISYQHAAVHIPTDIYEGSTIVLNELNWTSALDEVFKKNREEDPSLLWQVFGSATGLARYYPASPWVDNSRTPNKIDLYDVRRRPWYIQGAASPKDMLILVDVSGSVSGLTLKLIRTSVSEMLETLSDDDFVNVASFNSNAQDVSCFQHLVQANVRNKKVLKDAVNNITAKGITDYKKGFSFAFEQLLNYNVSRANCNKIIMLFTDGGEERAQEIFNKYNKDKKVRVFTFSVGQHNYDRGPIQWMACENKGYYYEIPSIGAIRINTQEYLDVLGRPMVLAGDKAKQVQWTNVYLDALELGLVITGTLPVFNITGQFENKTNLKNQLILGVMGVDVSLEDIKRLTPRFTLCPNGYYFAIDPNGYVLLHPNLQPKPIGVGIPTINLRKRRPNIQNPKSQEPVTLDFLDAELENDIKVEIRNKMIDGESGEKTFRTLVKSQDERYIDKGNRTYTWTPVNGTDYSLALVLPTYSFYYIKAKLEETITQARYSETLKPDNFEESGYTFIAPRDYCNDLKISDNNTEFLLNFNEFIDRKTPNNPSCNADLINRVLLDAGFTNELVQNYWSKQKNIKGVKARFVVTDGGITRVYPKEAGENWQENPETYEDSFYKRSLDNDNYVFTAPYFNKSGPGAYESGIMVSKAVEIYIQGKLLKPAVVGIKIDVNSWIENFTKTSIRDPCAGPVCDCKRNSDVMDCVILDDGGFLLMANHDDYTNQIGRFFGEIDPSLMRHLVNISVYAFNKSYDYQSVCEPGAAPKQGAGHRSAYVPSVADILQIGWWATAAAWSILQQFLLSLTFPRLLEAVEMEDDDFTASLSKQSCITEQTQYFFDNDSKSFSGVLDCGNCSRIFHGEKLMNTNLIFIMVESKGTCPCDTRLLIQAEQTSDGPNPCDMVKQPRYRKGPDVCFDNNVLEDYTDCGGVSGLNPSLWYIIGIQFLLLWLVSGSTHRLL

Human μ-opioid receptor, sequence (P35372 whole entry): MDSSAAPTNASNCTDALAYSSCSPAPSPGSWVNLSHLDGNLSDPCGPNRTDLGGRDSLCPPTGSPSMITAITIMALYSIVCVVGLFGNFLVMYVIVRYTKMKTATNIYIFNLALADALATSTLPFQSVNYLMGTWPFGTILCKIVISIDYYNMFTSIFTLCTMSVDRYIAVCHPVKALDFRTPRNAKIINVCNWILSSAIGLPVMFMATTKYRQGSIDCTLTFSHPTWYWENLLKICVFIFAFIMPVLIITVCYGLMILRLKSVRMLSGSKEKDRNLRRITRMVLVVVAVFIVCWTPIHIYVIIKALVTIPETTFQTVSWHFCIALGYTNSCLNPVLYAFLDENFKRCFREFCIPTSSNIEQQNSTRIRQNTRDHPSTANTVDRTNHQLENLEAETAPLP

Ki (Human μ-opioid receptor; read-out: μ-binding) [nM]	Ki ([1]; read-out: α2δ-1 binding) [nM]	Compound	Ki (Human μ-opioid receptor) [nM]	Ki [1] [nM]	Ki ([1]; binding to α2δ-1 subunit of voltage-gated calcium channels expressed as Ki, + also Ki>5000 nM or inhibition between 1% and 50%, read-out: α2δ-1 binding) [nM]
–	–	CCC[C@@H](c1nc2ccccc2c(=O)n1CC)N1CCN[C@@H](C)C1 [Example 44, 3-ethyl-2-((S)-1-((S)-3-methylpiperazin-1-yl)butyl)quinazolin-4(3H)-one]	> 500	> 5000	–
–	–	CCCC(c1nc2ncccc2c(=O)n1CC)N1CCNCC1 (centres unmarked) [Example 94, 3-ethyl-2-(1-(piperazin-1-yl)butyl)pyrido[2,3-d]pyrimidin-4(3H)-one]	> 500	< 500	–
–	–	CCCC(c1nc2ccc(CCN(C)CCC(C)C)cc2c(=O)n1CC)N1C[C@@H](C)N[C@@H](C)C1 (stereo partly drawn) [Example 175, 2-(1-((3S,5R)-3,5-dimethylpiperazin-1-yl)butyl)-3-ethyl-6-(2-(isopentyl(methyl)amino)ethyl)quinazolin-4(3H)-one]	> 500	< 500	–
–	–	CCCC(c1nc2ccc(-c3ccncc3)cc2c(=O)n1CC)N1C[C@@H](C)N[C@@H](C)C1 (stereo partly drawn) [Example 132, 2-(1-((3S,5R)-3,5-Dimethylpiperazin-1-yl)butyl)-3-ethyl-6-(pyridin-4-yl)quinazolin-4(3H)-one]	> 500	< 500	–
–	–	CCC[C@@H](c1nc2c(F)cc(Br)cc2c(=O)n1CC)N1CCNCC1 [Example 95, (S)-6-bromo-3-ethyl-8-fluoro-2-(1-(piperazin-1-yl)butyl)quinazolin-4(3H)-one]	> 500	> 5000	–
–	–	CCCC(c1nc2ncc(Br)cc2c(=O)n1CC)N1CCNCC1 (centres unmarked) [Example 93, 6-bromo-3-ethyl-2-(1-(piperazin-1-yl)butyl)pyrido[2,3-d]pyrimidin-4(3H)-one]	> 500	< 500	–
> 500	500 to 5000	CCC[C@H](c1nc2ccc(N3C[C@H](C)OC4(CCNCC4)C3)cc2c(=O)n1CC)N1C[C@@H](C)N[C@@H](C)C1 [Example 153, 2-((R)-1-((3S,5R)-3,5-dimethylpiperazin-1-yl)butyl)-3-ethyl-6-((S)-2-methyl-1-oxa-4,9-diazaspiro[5.5]undecan-4-yl)quinazolin-4(3H)-one]	–	–	–
–	–	CCCC(c1nc2ccc(NCC)cc2c(=O)n1CC)N1C[C@@H](C)N[C@@H](C)C1 (stereo partly drawn) [Example 24, 2-(1-((3S,5R)-3,5-dimethylpiperazin-1-yl)butyl)-3-ethyl-6-(ethylamino)quinazolin-4(3H)-one]	> 500	< 500	–
–	–	CCCC(c1nc2ccc(N3CC=C(c4ccccc4O)CC3)cc2c(=O)n1CC)N1C[C@@H](C)N[C@@H](C)C1 (stereo partly drawn) [Example 148, 2-(1-((3S,5R)-3,5-dimethylpiperazin-1-yl)butyl)-3-ethyl-6-(4-(2-hydroxyphenyl)-5,6-dihydropyridin-1(2H)-yl)quinazolin-4(3H)-one]	> 500	< 500	–
–	–	CCC[C@H](c1nc2ccc(N3C[C@H](C)OC4(CCN(CCc5ccccc5)CC4)C3)cc2c(=O)n1CC)N1C[C@@H](C)N[C@@H](C)C1 [Example 156, 2-((R)-1-((3S,5R)-3,5-dimethylpiperazin-1-yl)butyl)-3-ethyl-6-((S)-2-methyl-9-phenethyl-1-oxa-4,9-diazaspiro[5.5]undecan-4-yl)quinazolin-4(3H)-one]	> 500	–	500 to 5000
–	–	CCC[C@@H](c1nc2ncc(Br)cc2c(=O)n1CCC)N1CCN[C@@H](C)C1 [Example 73, 6-bromo-2-((S)-1-((S)-3-methylpiperazin-1-yl)butyl)-3-propylpyrido[2,3-d]pyrimidin-4(3H)-one]	> 500	> 5000	–
–	–	CCC[C@@H](c1nc2cc(F)c(Br)cc2c(=O)n1CC)N1CCN[C@H](C)C1 [Example 209, 6-bromo-3-ethyl-7-fluoro-2-((S)-1-((R)-3-methylpiperazin-1-yl)butyl)quinazolin-4(3H)-one]	100 to 500	< 500	–
–	–	CCC[C@@H](c1nc2ccc(Br)cc2c(=O)n1CC)N1CCN(C)[C@@H](C)C1 [Example 111, 6-Bromo-2-((S)-1-((S)-3,4-dimethylpiperazin-1-yl)butyl)-3-ethylquinazolin-4(3H)-one]	> 500	> 5000	–
